Assay results as given in paper PMC6301899, “Characterization, expression and application of a zearalenone degrading enzyme from Neurospora crassa” (AMB Express, 2018).

Biological target: T1, ZENC (Neurospora crassa, UniProt Q1K8M1)
T1 construct: gene NCU05345; codon-optimised full gene (888 bp; 295 residues in abstract, 296 in results) fused to alpha-factor signal peptide in pPIC9K; secreted from Pichia pastoris GS115, HiTrap Q purified; about 29 kDa by SDS-PAGE; proposed catalytic triad Ser117, Asp141, His274
T1 sequence (Q1K8M1 entry or part of it): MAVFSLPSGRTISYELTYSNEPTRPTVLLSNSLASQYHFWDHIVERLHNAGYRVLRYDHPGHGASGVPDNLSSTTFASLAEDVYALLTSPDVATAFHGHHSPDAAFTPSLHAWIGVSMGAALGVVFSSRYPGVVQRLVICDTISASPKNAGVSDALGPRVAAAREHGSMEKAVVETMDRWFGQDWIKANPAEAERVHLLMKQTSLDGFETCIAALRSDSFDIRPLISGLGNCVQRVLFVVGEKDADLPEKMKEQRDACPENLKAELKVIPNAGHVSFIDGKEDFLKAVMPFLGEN
Test: HPLC with fluorescence detection of remaining substrate; nonlinear Hill fit with n = […]
Type: biochemical
Conditions: 50 mM Tris-HCl pH 8.0, 45 °C, 3 min; substrate range printed as 2 to 220 mM

C[C@H]1CCCC(=O)CCC/C=C/c2cc(O)cc(O)c2C(=O)O1 [zearalenone]
Km: 38.6 ± 5.87 µM
